“Also recorded” adds a separate entry of the source.
What was measured:
[1] = system: human islets; assay: Drug compound screening in single human islets: TNF-α induced PUMA, IL-8 and TNF mRNA; assay type: cell-based; details: pre-incubation 1 hour, 10 μM (Etanercept 0.1 μg/mL), then 5 ng/mL TNF-α 4 hours, vs control (vehicle alone); for TNF-α induced up regulation of PUMA mRNA (% ACTB): FIG. 4A; for TNF-α induced up regulation of IL-8 mRNA (% ACTB): FIG. 4B; for TNF-α induced up regulation of endogenous TNF mRNA (% ACTB): FIG. 4C
Method: FIGS. 4A-C. PUMA, IL-8 and TNF-α are used as markers to screen drug compounds protecting islets from TNF-α stimulus. Single human islets in hextuplicate were pre-incubated with various drugs (all used at 10 μM except Etanercept (0.1μ/ml)) or solvent (DMSO) at 37° C. for 1 hour, followed by stimulation with or without 5 ng/ml of TNF-α for an additional 4 hours. FIG. 4A: PUMA and ACTB mRNA were quantified and the results are expressed as % ACTB (*p<0.05 vs. control islets with TNF-α). FIG. 4B: IL-8 was quantified and the results are expressed as % ACTB. FIG. 4C: Endogenous TNF-α was quantified and the results are expressed as % ACTB. Together, the results of FIGS. 4A-C show an example of a compound screening system using PUMA, IL-8 and TNF mRNA.
Human islets and acinar cells isolated for research use were obtained from the Southern California Islet Cell Resources (SC-ICR) Center, Beckman Research Institute of the City of Hope (Duarte, Calif.) 1 to 3 days after isolation. The donor age ranged from 18 to 67 (48±14) years and included both sexes. Islet preparations with >70% purity and >90% viability were used. The use of human islets and acinar cells in this study was approved by the Institutional Review Board of the City of Hope. For mRNA experiments, islets between 150 μm to 300 μm in diameter (medium size islet) were handpicked in hexuplicate by experienced personnel under a dissection microscope without staining. Each handpicked islet was cultured individually in a non-tissue culture treated 96 well plate (Sarstedt, Newton, N.C.) with a CMRL (Mediatech Inc., Holly Hill, Fla.) based serum-free medium, which is used to culture human islets for clinical transplantation. Islets were treated with or without recombinant human TNF-α (0, 1, 5, 50 ng/mL) and/or recombinant human IFNγ (0, 10, 100, 1000 U/mL) for up to 16 hours. For other islet experiments, 500 to 1000 islet equivalent (IEQ) were cultured (500 IEQ/mL of medium) in a Petri dish for up to 24 hours in the same condition described above unless otherwise specified. For acinar cell experiments, acinar cells were kept in islet culture medium at 4° C. immediately after the isolation and used within 24 hours. Aliquots of 5-10 acinar cell clusters in triplicates were cultured with islet culture medium with or without TNF-α for up to 16 hours. For drug compound screening experiments, islets were pre-incubated with Etanercept, FK506, Cyclosporine (CsA), Rapamycin, Imatinib mesylate, Janus Kinase (JAK) inhibitor or p38 inhibitor, SB203580, for 1 hour, and then 5 ng/mL TNF-α was added to the islet culture for 4 hours. All the compounds except Etanercept (0.1 μg/mL) were dissolved in dimethyl sulfoxide (DMSO) and used at a concentration of 10 μM (all compounds are gifts from Hitachi Chemical Research Center).
RNA purification and PCR was performed as described previously (32). Briefly, following culture, islets were transferred to a 96-well filter plate (Hitachi Chemical Research Center-HCR, Irvine, Calif.)(44) and 50 μL of Lysis Buffer (HCR) containing a cocktail of specific reverse primers was applied to each well. Poly(A)+mRNA isolation was performed using the Hem(A)+™ System (Hitachi Chemical Research Center, Irvine, Calif.). The resultant cell lysates were transferred to oligo(dT)-immobilized microplates (GenePlate, HCR) for poly(A)^+ mRNA purification (45). The cDNA was directly synthesized with 30 μL of solution in each well: specific primer-primed cDNA in the liquid phase and oligo(dT)-primed cDNA in the solid phase (44). The cDNA in the solution was diluted by adding 30 μL nuclease-free water, with 4 μL of the diluted cDNA used for SYBR Green PCR (BioRad, Hercules, Calif.) (46). Each gene was amplified individually. The cycle threshold (Ct) was determined using analytical software (SDS, Applied Biosystems, Foster City, Calif.). Differences in Ct between the target and control mRNA (ΔCt) are used to quantify the relative amount of each target, calculated as 2^−ΔCt. […]

[2] = children with new onset of T1DM; cited from earlier work
[3] = system: human islets; assay: IL-1β stimulation of single human islets, mRNA by RT-PCR; assay type: cell-based; details: recombinant IL-1β up to 100 U/mL, up to 16 hours, n=1
Method: FIGS. 16A-D. IL-1β up-regulates PUMA mRNA in human islets. Single islets in sextuplicate were stimulated with or without recombinant IL-1β (0.10 and 100 U/mL) for up to 16 hours. FIG. 16A) PUMA, FIG. 16B) IL-8, FIG. 16C) endogenous IL-1B and FIG. 16D) endogenous TNF mRNA in islets were normalized by β actin (% ACTB) mRNA assessed by RT-PCR (n=1). IL-1β induced PUMA, IL-8, endogenous IL-1 and TNF in human islets.
In addition to TNF-α, the expression of PUMA was examined following stimulation with […]. […] alone stimulation induced PUMA, IL-8, TNF and IL1B mRNA within 4 hours. […] IL-1β-induced PUMA expression can also be explained through the NFκB pathway.

[4] = system: human islets; assay: Western blot of PUMA and phospho-p65 in cultured human islets; assay type: cell-based
Method: All data are presented as a mean±standard error.
In some experiments, islets were pre-incubated with 10 μM NFκB inhibitor; BAY11-7082 for 1 hour before cytokine stimulation. Islet cell lysis and western blot was performed as previously described (49).

[5] = system: islets; details: in vitro; cited from earlier work
[6] = system: NOD mice; details: cited from earlier work
[7] = system: human islets; assay: Cytokine stimulation of single human islets, mRNA quantification; assay type: cell-based; details: TNF-α 1, 5, 50 ng/ml and/or IFNγ 10, 100, 1000 U/ml
Method: Single islets were stimulated with or without 50 ng/ml TNF-α for 16 hours. Each dot indicates the result of one islet lot tested in hextuplicate. The tests were performed using 4 different human islet lots. Bars indicate the mean of 4 lots. Each gene expression was normalized by ACTB (a gene encoding β actin), and the fold increase was calculated by dividing TNF-α treated islets by control islets (*p<0.01, n=4). […] FIGS. 8B-D) PUMA (FIG. 8B), IL-8 (FIG. 8C) and TNF-α (FIG. 8D) expression from single human islets (n=6) stimulated with 0 (open circles), 1 (solid triangles), 5 (solid squares) and 50 ng/ml (solid circles) TNF-α for 0, 1, 4, 16 hours in 3 independent cases. Dose dependent expression of (FIG. 8E) PUMA, (FIG. 8F) IL-8 and (FIG. 8G) TNF-α in human islet at the 4 hour time point (n=3). […] (FIG. 8K) PUMA and (FIG. 8L) IL-8 expression in human islets stimulated with or without TNF-α (1, 5, 50 ng/ml) and/or IFNγ (10, 100, 1000 U/ml) for 4 hours. […] All data are presented as a mean±standard error.
Human islets and acinar cells isolated for research use were obtained from the Southern California Islet Cell Resources (SC-ICR) Center, Beckman Research Institute of the City of Hope (Duarte, Calif.) 1 to 3 days after isolation. The donor age ranged from 18 to 67 (48±14) years and included both sexes. Islet preparations with >70% purity and >90% viability were used. […]

[8] = system: human islets; assay: Preproinsulin precursor mRNA synthesis and total insulin release of single human islets; assay type: cell-based; details: 16 hours, high glucose; TNF-α 50 ng/mL; IFNγ 10-1000 U/ml; FIG. 3B, 3C
Method: FIG. 3B) The glucose induced newly synthesized preproinsulin precursor mRNA measured by pre-spliced preproinsulin mRNA normalized by pre- and post-spliced preproinsulin mRNA (% exon) in the corresponding islets with or without 50 ng/ml. TNF-α was also examined (n=3, *p<0.05). FIG. 3C) Glucose induced preproinsululin precursor mRNA synthesis with or without TNF-α (1, 5 and 50 ng/ml) and/or IFNγ (10, 100 and 1000 U/ml) from a single human islet in hextuplicate. […] All data are presented as a mean±standard error.
Hand picked human islets were cultured with 100 uL of RPMI 1640 medium containing 5% fetal bovine serum and either low-glucose (3.3 mmol/L) or high-glucose (17 mmol/L) for 16 hours. Preproinsulin mRNA synthesis was measured from the islets by the methods described above. Pre-spliced preproinsulin mRNA (preproinsulin precursor mRNA) was normalized by pre- and post-spliced preproinsulin mRNA as described previously (32).
The effect of TNF-α and/or IFN-γ on β cell function was examined by analyzing the ability of human islets to synthesize and release insulin. […] The dose dependent effect of TNF-α and/or IFN-γ on preproinsulin precursor mRNA synthesis was also examined.

Etanercept
TNF-α induced up regulation of PUMA mRNA (% ACTB) [1]: prevented TNF-α induced up regulation | TNF-α induced up regulation of IL-8 mRNA (% ACTB) [1]: prevented TNF-α induced up regulation | TNF-α induced up regulation of endogenous TNF mRNA (% ACTB) [1]: prevented TNF-α induced up regulation | HbA1C levels [2]: lowering HbA1C levels | endogenous insulin production [2]: increased levels of endogenous insulin production

IL-1β: recombinant IL-1β; cytokine stimulus
PUMA mRNA (% ACTB) in human islets ([3]; FIG. 16A): induced; also recorded: returned to the normal level by 16 hours | IL-8 mRNA (% ACTB) in human islets ([3]; FIG. 16B): induced | endogenous IL-1B mRNA (% ACTB) in human islets ([3]; FIG. 16C): induced | endogenous TNF mRNA (% ACTB) in human islets ([3]; FIG. 16D): induced

Cc1ccc(S(=O)(=O)/C=C/C#N)cc1 [BAY11-7082]
PUMA expression induced by the combination of TNF-α and IFNγ (western blot) ([4]; 10 μM pre-incubation 1 hour, TNF-α 50 ng/ml + IFNγ 1000 U/ml, FIG. 2C): did not inhibit PUMA expression

Cc1ccc(NC(=O)c2ccc(CN3CCN(C)CC3)cc2)cc1Nc1nccc(-c2cccnc2)n1 [Imatinib]
TNF-α induced up regulation of PUMA mRNA (% ACTB) [1]: reduced the up regulation | TNF-α induced up regulation of IL-8 mRNA (% ACTB) [1]: reduced the up regulation | TNF-α induced up regulation of endogenous TNF mRNA (% ACTB) [1]: reduced the up regulation | protection of islets from combined cytokines [5]: protect islets from combined cytokines | spontaneous onset of diabetes [6]: prevents the spontaneous onset of diabetes

B1: IFN-γ: recombinant human IFNγ, R&D Systems; cytokine stimulus (protein, UniProt P01579 24-161, looked up)
Interferon gamma: QDPYVKEAENLKKYFNAGHSDVADNGTLFLGILKNWKEESDRKIMQSQIVSFYFKLFKNFKDDQSIQKSVETIKEDMNVKFFNSNKKKRDDFEKLTNYSVTDLNVQRKAIHELIQVMAELSPAAKTGKRKRSQMLFRG
PUMA protein expression (western blot) ([4]; TNF-α 50 ng/mL and/or IFN-γ 1000 U/mL, FIG. 2A): but not by IFN-γ (1000 U/mL) alone | PUMA mRNA expression in human islets ([7]; 4 hours, FIG. 8K): did not induce PUMA | IL-8 mRNA expression in human islets ([7]; FIG. 8C, 8F, 8L): did not induce IL-8 expression | glucose-induced preproinsulin precursor mRNA synthesis [8]: did not impair

Source: patent US20180030537A1, “PUMA, A PRO-APOPTOTIC GENE, AS A NOVEL MOLECULAR BIOMARKER FOR TNFALPHA-INDUCED HUMAN ISLET DAMAGE” (CITY OF HOPE, priority 2010, published 2018)
